This is an account of results in US10414811B2, “Protease-resistant lipidated GLP-1 analogs” (MEDIMMUNE LIMITED, priority 2015, dated 2019).

Read-outs that look alike come from different tables or passages of the source. Numbered stars: 1 amine (or outer) side, 2 acyl side, 3 side chain; on linkers, the order of the positions; unused ones are H or OH. Square brackets hold non-standard residues; d marks the D form. Side chains are listed from the residue outwards. Peptide text beside a SMILES is read from it. * marks the point of attachment. C18 diacid = O=C(O)CCCCCCCCCCCCCCCCC(=O)*; γGlu = O=C(O)[C@H](CCC(=O)[*:2])N[*:1]; αMeF = C[C@](N)(Cc1ccccc1)C(=O)O; αMeK = C[C@](N)(CCCCN)C(=O)O; Lauroyl = CCCCCCCCCCCC(=O)*; αMeS = C[C@](N)(CO)C(=O)O; AEEA = NCCOCCOCC(=O)O; Aib = CC(C)(N)C(=O)O

Common to all, as to assay type: cell-based
Assay [1] has as its target T1, human glucagon receptor (GCGR) (Homo sapiens, UniProt P47871).
T1 construct: expressed in transfected cells
In words: cAMP assay, human GCGR cells. The essentials: (§1)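 Peptide-stimulated cAMP measured by two-step HTRF after a 30 min room-temperature incubation with receptor-expressing cells (hGLP-1R, hGIPR at 1×10^5 cells/ml; hGCGR at 2×10^5 cells/ml). Duplicate dilutions; EC50 from 4-parameter logistic fit of % Delta F.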

For assay [2], the target named is T2, human GLP-1 receptor (GLP-1R) (Homo sapiens, UniProt P43220).
T2 construct: expressed in transfected cells
T2 sequence (P43220 24-463): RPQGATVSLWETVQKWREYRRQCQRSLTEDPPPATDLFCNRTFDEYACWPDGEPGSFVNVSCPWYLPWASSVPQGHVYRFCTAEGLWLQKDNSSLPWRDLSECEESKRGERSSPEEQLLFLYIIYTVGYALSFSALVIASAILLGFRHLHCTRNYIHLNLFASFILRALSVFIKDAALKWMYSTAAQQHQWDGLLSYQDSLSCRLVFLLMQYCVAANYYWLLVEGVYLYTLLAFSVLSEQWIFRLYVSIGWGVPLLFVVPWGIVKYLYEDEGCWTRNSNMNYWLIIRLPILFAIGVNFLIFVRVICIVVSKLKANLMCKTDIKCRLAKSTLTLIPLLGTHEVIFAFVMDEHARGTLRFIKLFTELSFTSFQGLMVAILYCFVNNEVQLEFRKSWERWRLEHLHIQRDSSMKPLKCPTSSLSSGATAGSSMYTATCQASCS
In words: cAMP assay, human GLP-1R cells. The essentials: as §1

Assay [3] has as its target T3, human glucose-dependent insulinotropic peptide receptor (GIPR) (Homo sapiens, UniProt P48546).
T3 construct: expressed in transfected cells
T3 sequence (P48546 22-466): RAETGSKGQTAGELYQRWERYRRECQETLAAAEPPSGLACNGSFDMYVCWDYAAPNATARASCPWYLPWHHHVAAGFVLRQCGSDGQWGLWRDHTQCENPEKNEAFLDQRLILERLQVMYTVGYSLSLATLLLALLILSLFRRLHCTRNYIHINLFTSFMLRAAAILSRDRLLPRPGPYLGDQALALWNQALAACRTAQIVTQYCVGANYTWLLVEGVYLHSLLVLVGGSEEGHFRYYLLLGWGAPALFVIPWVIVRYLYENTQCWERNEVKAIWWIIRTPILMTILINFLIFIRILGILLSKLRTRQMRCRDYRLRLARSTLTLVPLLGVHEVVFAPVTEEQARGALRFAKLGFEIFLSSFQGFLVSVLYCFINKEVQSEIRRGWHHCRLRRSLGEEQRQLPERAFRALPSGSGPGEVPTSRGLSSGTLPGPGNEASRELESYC
In words: cAMP assay, human GIPR cells. The essentials:
as §1

The mark [4] stands for this setting: tris-lipidated peptides, first replicate, read-out: Primary assay EC50 Gluc-R (n1).
[5] abbreviates: tris-lipidated peptides, mean of n1 and n2, read-out: Primary assay EC50 Mean pM GLP-1R.
Where [6] appears, read: tris-lipidated peptides, replicate n1, read-out: Primary assay EC50 GLP-1R n1.
The mark [7] stands for this setting: tris-lipidated peptides, replicate n2, read-out: Primary assay EC50 GLP-1R n2.
The mark [8] stands for this setting: tris-lipidated peptides, first replicate, read-out: Primary assay EC50 GIP-R (n1).
Where [9] appears, read: cAMP assay, first determination (n1), read-out: Primary assay EC50 Gluc-R (n1).
Setting [10] is: cAMP assay, second determination (n2), read-out: Primary assay EC50 Gluc-R (n2).
Where [11] appears, read: cAMP assay, first determination (n1), read-out: Primary assay EC50 GLP-1R n1.
Setting [12] is: cAMP assay, second determination (n2), read-out: Primary assay EC50 GLP-1R n2.
Setting [13] is: mean of n1 and n2, read-out: Mean pM GLP-1R.
[14] abbreviates: cAMP assay, first determination (n1), read-out: Primary assay EC50 GIP-R (n1).
The mark [15] stands for this setting: cAMP assay, second determination (n2), read-out: Primary assay EC50 GIP-R (n2).

T1 sequence (P47871 26-477): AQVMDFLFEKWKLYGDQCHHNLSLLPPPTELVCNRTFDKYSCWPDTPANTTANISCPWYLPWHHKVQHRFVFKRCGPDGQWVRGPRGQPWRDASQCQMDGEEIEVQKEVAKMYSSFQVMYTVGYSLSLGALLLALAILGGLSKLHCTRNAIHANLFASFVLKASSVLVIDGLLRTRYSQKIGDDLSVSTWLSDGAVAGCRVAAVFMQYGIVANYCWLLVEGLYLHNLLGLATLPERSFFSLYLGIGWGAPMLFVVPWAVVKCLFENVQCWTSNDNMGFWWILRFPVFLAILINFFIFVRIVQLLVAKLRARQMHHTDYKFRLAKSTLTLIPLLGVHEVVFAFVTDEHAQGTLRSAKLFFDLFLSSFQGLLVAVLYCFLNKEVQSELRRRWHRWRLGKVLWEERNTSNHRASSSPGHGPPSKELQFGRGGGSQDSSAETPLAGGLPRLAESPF

Regarding `CCCCCCCCCCCC(=O)N[C@@H](CCC(=O)NCCOCCOCC(=O)NCCOCCOCC(=O)NCCCC[C@H](NC(=O)[C@H](C)NC(=O)[C@@H](NC(=O)[C@H](Cc1ccccc1)NC(=O)[C@H](CCC(=O)O)NC(=O)[C@](C)(CCCCN)NC(=O)[C@H](C)NC(=O)[C@H](CCCCNC(=O)COCCOCCNC(=O)COCCOCCNC(=O)CC[C@H](NC(=O)CCCCCCCCCCC)C(=O)O)NC(=O)[C@H](CCC(=O)O)NC(=O)CNC(=O)[C@H](CCC(=O)O)NC(=O)[C@H](CC(C)C)NC(=O)[C@H](CCCCNC(=O)COCCOCCNC(=O)COCCOCCNC(=O)CC[C@H](NC(=O)CCCCCCCCCCC)C(=O)O)NC(=O)[C@H](CO)NC(=O)[C@](C)(CO)NC(=O)[C@@H](NC(=O)[C@H](CC(=O)O)NC(=O)[C@H](CO)NC(=O)[C@@H](NC(=O)[C@](C)(Cc1ccccc1)NC(=O)[C@H](CO)NC(=O)CNC(=O)[C@H](CCC(=O)O)NC(=O)C(C)(C)NC(=O)[C@@H](N)Cc1c[nH]cn1)[C@@H](C)O)C(C)C)[C@@H](C)CC)C(=O)N[C@H](C(=O)N[C@H](C(=O)N[C@@H](CCC(=O)O)C(=O)NCC(=O)NCC(N)=O)C(C)C)C(C)C)C(=O)O` [compound 465] (H-H[Aib]EGS[αMeF]TSDV[αMeS]SK([AEEA-AEEA-γGlu-Lauroyl])LEGEK([AEEA-AEEA-γGlu-Lauroyl])A[αMeK]EFIAK([AEEA-AEEA-γGlu-Lauroyl])VVEGG-NH2), the EC50 stood at 20 nM in assay [1] (setting [4]); 117 pM in assay [2] (setting [5]); 101 pM in assay [2] (setting [6]); 133 pM in assay [2] (setting [7]); 20 nM in assay [3] (setting [8]).
With `CC[C@H](C)[C@H](NC(=O)[C@](C)(Cc1ccccc1)NC(=O)[C@H](CCC(=O)O)NC(=O)[C@](C)(CCCCN)NC(=O)[C@H](C)NC(=O)[C@H](C)NC(=O)[C@H](CCC(=O)O)NC(=O)CNC(=O)[C@H](CCC(=O)O)NC(=O)[C@H](CC(C)C)NC(=O)[C@](C)(Cc1ccccc1)NC(=O)[C@H](CO)NC(=O)[C@](C)(CO)NC(=O)[C@@H](NC(=O)[C@H](CC(=O)O)NC(=O)[C@H](CO)NC(=O)[C@@H](NC(=O)[C@](C)(Cc1ccccc1)NC(=O)[C@H](CCCCNC(=O)COCCOCCNC(=O)COCCOCCNC(=O)CC[C@H](NC(=O)CCCCCCCCCCCCCCCCC(=O)O)C(=O)O)NC(=O)CNC(=O)[C@H](CCC(=O)O)NC(=O)C(C)(C)NC(=O)[C@@H](N)Cc1c[nH]cn1)[C@@H](C)O)C(C)C)C(=O)N[C@@H](C)C(=O)N[C@@](C)(Cc1ccccc1)C(=O)N[C@H](C(=O)N[C@H](C(=O)N[C@@](C)(CCCCN)C(=O)NCC(=O)NCC(N)=O)C(C)C)C(C)C` [compound 124] (H-H[Aib]EGK([AEEA-AEEA-γGlu-C18 diacid])[αMeF]TSDV[αMeS]S[αMeF]LEGEAA[αMeK]E[αMeF]IA[αMeF]VV[αMeK]GG-NH2; N-terminus assumed), the EC50 in assay [1] (setting [9]) was at least 25 nM; in assay [1] (setting [10]), at least 25.1 nM; in assay [2] (setting [11]) it was at least 25000 pM; in assay [2] (setting [12]), at least 25100 pM; in assay [2] (setting [13]), at least 25100 pM; in assay [3] (setting [14]) it was at least 25 nM. Besides, the EC50 in assay [3] (setting [15]) was at least 25.1 nM.
Turning to `CCCCCCCCCCCCCCCCCC(=O)N[C@@H](CCC(=O)NCCCC[C@H](NC(=O)[C@@H](NC(=O)[C@@H](NC(=O)[C@](C)(Cc1ccccc1)NC(=O)[C@H](C)NC(=O)[C@@H](NC(=O)[C@](C)(Cc1ccccc1)NC(=O)[C@H](CCC(=O)O)NC(=O)[C@](C)(CCCCN)NC(=O)[C@H](C)NC(=O)[C@H](C)NC(=O)[C@H](CCC(=O)O)NC(=O)CNC(=O)[C@H](CCC(=O)O)NC(=O)[C@H](CC(C)C)NC(=O)[C@](C)(Cc1ccccc1)NC(=O)[C@H](CO)NC(=O)[C@](C)(CO)NC(=O)[C@@H](NC(=O)[C@H](CC(=O)O)NC(=O)[C@H](CO)NC(=O)[C@@H](NC(=O)[C@](C)(Cc1ccccc1)NC(=O)[C@H](CO)NC(=O)CNC(=O)[C@H](CCC(=O)O)NC(=O)C(C)(C)NC(=O)[C@@H](N)Cc1c[nH]cn1)[C@@H](C)O)C(C)C)[C@@H](C)CC)C(C)C)C(C)C)C(=O)NCC(=O)NCC(N)=O)C(=O)O` [compound 182], the EC50 in assay [1] (setting [9]) was at least 28 nM; in assay [1] (setting [10]), at least 28 nM; in assay [2] (setting [11]) it was 130 pM; in assay [2] (setting [12]) it was 52 pM; in assay [2] (setting [13]) it was 89.9 pM; in assay [3] (setting [14]), at least 28 nM. The EC50 in assay [3] (setting [15]) was at least 28 nM.
For the compound `CCCCCCCCCCCC(=O)N[C@@H](CCC(=O)NCCOCCOCC(=O)NCCOCCOCC(=O)NCCCC[C@H](NC(=O)[C@H](CCC(=O)O)NC(=O)[C@H](CC(C)C)NC(=O)[C@H](CCCCNC(=O)COCCOCCNC(=O)COCCOCCNC(=O)CC[C@H](NC(=O)CCCCCCCCCCC)C(=O)O)NC(=O)[C@H](CO)NC(=O)[C@](C)(CO)NC(=O)[C@@H](NC(=O)[C@H](CC(=O)O)NC(=O)[C@H](CO)NC(=O)[C@@H](NC(=O)[C@](C)(Cc1ccccc1)NC(=O)[C@H](CO)NC(=O)CNC(=O)[C@H](CCC(=O)O)NC(=O)C(C)(C)NC(=O)[C@@H](N)Cc1c[nH]cn1)[C@@H](C)O)C(C)C)C(=O)N[C@@H](CCC(=O)O)C(=O)N[C@@H](C)C(=O)N[C@@H](C)C(=O)N[C@@](C)(CCCCN)C(=O)N[C@@H](CCC(=O)O)C(=O)N[C@@H](Cc1ccccc1)C(=O)N[C@H](C(=O)N[C@@H](CCCCNC(=O)COCCOCCNC(=O)COCCOCCNC(=O)CC[C@H](NC(=O)CCCCCCCCCCC)C(=O)O)C(=O)N[C@@H](Cc1ccccc1)C(=O)N[C@H](C(=O)N[C@H](C(=O)N[C@@H](CCC(=O)O)C(=O)NCC(=O)NCC(N)=O)C(C)C)C(C)C)[C@@H](C)CC)C(=O)O` [compound 447] (H-H[Aib]EGS[αMeF]TSDV[αMeS]SK([AEEA-AEEA-γGlu-Lauroyl])LEK([AEEA-AEEA-γGlu-Lauroyl])EAA[αMeK]EFIK([AEEA-AEEA-γGlu-Lauroyl])FVVEGG-NH2; N-terminus assumed), the EC50 in assay [1] (setting [4]) was 19.7 nM; in assay [2] (setting [5]) it was 150 pM; in assay [2] (setting [6]) it was 123 pM; in assay [2] (setting [7]) it was 176 pM; in assay [3] (setting [8]) it was 19.7 nM.
Regarding `CC[C@H](C)[C@H](NC(=O)[C@](C)(Cc1ccccc1)NC(=O)[C@H](CCC(=O)O)NC(=O)[C@](C)(CCCCN)NC(=O)[C@H](C)NC(=O)[C@H](C)NC(=O)[C@H](CCC(=O)O)NC(=O)CNC(=O)[C@H](CCC(=O)O)NC(=O)[C@H](CC(C)C)NC(=O)[C@](C)(Cc1ccccc1)NC(=O)[C@H](CO)NC(=O)[C@](C)(CO)NC(=O)[C@@H](NC(=O)[C@H](CC(=O)O)NC(=O)CNC(=O)[C@@H](NC(=O)[C@](C)(Cc1ccccc1)NC(=O)[C@H](CO)NC(=O)CNC(=O)[C@H](CCC(=O)O)NC(=O)C(C)(C)NC(=O)[C@@H](N)Cc1c[nH]cn1)[C@@H](C)O)C(C)C)C(=O)N[C@@H](C)C(=O)N[C@@](C)(Cc1ccccc1)C(=O)N[C@H](C(=O)N[C@H](C(=O)N[C@@](C)(CCCCN)C(=O)NCC(=O)NCC(N)=O)C(C)C)C(C)C` [compound 25] (H-H[Aib]EGS[αMeF]TGDV[αMeS]S[αMeF]LEGEAA[αMeK]E[αMeF]IA[αMeF]VV[αMeK]GG-NH2), the EC50 in assay [1] (setting [9]) is at least 100 nM; in assay [1] (setting [10]) it was 22 nM; in assay [2] (setting [11]) it was 500 pM; in assay [2] (setting [12]), 590 pM; in assay [2] (setting [13]), 544 pM; in assay [3] (setting [14]), at least 100 nM. In assay [3] (setting [15]), the EC50 was at least 100 nM.
Turning to `CC[C@H](C)[C@H](NC(=O)[C@](C)(Cc1ccccc1)NC(=O)[C@H](CCC(=O)O)NC(=O)[C@](C)(CCCCN)NC(=O)[C@H](C)NC(=O)[C@H](C)NC(=O)[C@H](CCC(=O)O)NC(=O)CNC(=O)[C@H](CCC(=O)O)NC(=O)[C@H](CC(C)C)NC(=O)[C@](C)(Cc1ccccc1)NC(=O)[C@H](CO)NC(=O)[C@](C)(CO)NC(=O)[C@@H](NC(=O)[C@H](CC(=O)O)NC(=O)[C@H](CO)NC(=O)[C@@H](NC(=O)[C@](C)(Cc1ccccc1)NC(=O)[C@H](CO)NC(=O)CNC(=O)[C@H](CCC(=O)O)NC(=O)C(C)(C)NC(=O)[C@@H](N)Cc1c[nH]cn1)[C@@H](C)O)C(C)C)C(=O)N[C@@H](C)C(=O)N[C@@](C)(Cc1ccccc1)C(=O)N[C@H](C(=O)N[C@H](C(=O)N[C@@H](CCCCNC(=O)CC[C@H](NC(=O)CC[C@H](NC(=O)CCCCCCCCCCCCCCCCC(=O)O)C(=O)O)C(=O)O)C(=O)NCC(=O)NCC(N)=O)C(C)C)C(C)C` [compound 192], the EC50 in assay [1] (first run (n1), cAMP activity of substituted and mono-lipidated peptides, read-out: Primary assay EC50 Gluc-R) is at least 27 nM; in assay [2] (first run (n1), cAMP activity, read-out: Primary assay EC50 GLP-1R n1), 170 pM; in assay [2] (setting [13]), 113 pM; in assay [2] (second run (n2), cAMP activity, read-out: Primary assay EC50 GLP-1R n2) it was 60 pM; in assay [3] (first run (n1), cAMP activity, read-out: Primary assay EC50 GIP-R) it was at least 27 nM.
